IC50 data for 1 compound are collected here from patent US7625912B2, “Mitotic kinesin inhibitors” (Merck & Co. Inc, priority 2003, dated 2009).

The assay addresses T1, human KSP motor domain (KSP(367H)) (Homo sapiens, UniProt P52732).
T1 construct: were used to amplify the motor domain and the neck linker region; made in house; host or cells: E. coli BL21 (DE3), pRSETa vector
T1 sequence (P52732 18-359 limits assumed): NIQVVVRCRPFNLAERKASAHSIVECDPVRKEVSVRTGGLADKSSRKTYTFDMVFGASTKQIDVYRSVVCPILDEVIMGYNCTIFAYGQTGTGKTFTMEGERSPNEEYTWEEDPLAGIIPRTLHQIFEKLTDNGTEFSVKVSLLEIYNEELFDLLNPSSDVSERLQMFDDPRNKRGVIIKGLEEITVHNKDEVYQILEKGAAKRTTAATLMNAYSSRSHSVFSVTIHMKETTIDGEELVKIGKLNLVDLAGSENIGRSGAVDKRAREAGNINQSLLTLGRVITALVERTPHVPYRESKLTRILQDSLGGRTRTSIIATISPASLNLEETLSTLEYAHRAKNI
As to the kind of experiment: Kinesin ATPase in vitro assay. The class given is biochemical. Particulars: microtubules, 1 mM ATP, 23° C.; free phosphate by quinaldine red/ammonium molybdate, absorbance 540 nm. The text has this:
I. Kinesin ATPase In Vitro Assay
Cloning and Expression of Human Poly-Histidine Tagged KSP Motor Domain (KSP(367H))
Plasmids for the expression of the human KSP motor domain construct were cloned by PCR using a pBluescript full length human KSP construct (Blangy et al., Cell, vol. 83, pp 1159-1169, 1995) as a template. The N-terminal primer 5′-[…] (SEQ.ID.NO.: 1) and the C-terminal primer 5′-[…] […] (SEQ.ID.NO.: 2) were used to amplify the motor domain and the neck linker region. The PCR products were digested with AseI and XhoI, ligated into the NdeL/XhoI digestion product of pRSETa (Invitrogen) and transformed into E. coli BL21 (DE3).
Cells were grown at 37° C. to an OD600 of 0.5. […]
The kinesin motor domain is incubated with microtubules, 1 mM ATP (1:1 MgCl2: Na-ATP), and compound at 23° C. in buffer containing 80 mM K-HEPES (pH 7.0), 1 mM EGTA, 1 mM DTT, 1 mM MgCl2, and 50 mM KCl. […] Free phosphate from the ATP hydrolysis reaction is measured via a quinaldine red/ammonium molybdate assay by adding 150 μl of quench C buffer containing a 2:1 ratio of quench A:quench B. Quench A contains 0.1 mg/ml quinaldine red and 0.14% polyvinyl alcohol; quench B contains 12.3 mM ammonium molybdate tetrahydrate in 1.15 M sulfuric acid. The reaction is incubated for 10 minutes at 23° C., and the absorbance of the phospho-molybdate complex is measured at 540 nm.

Some results are limits rather than exact numbers.

One may read the IC50 as the concentration that inhibits the measured activity by half. In the case of `Cc1ccc(-n2c(-c3ccccc3Br)nccc2=O)cc1F` [1-4, 2-(2-bromophenyl)-3-(3-fluoro-4-methylphenyl)pyrimidin-4(3H)-one], the IC50 is ≤ 50 µM.
